Test results taken from paper PMC7366380, “Discovery of a Potent and Selective Covalent Inhibitor and Activity-Based Probe for the Deubiquitylating Enzyme UCHL1, with Antifibrotic Activity” (Journal of the American Chemical Society, 2020).
pIC50: −log10 of the molar value. Values joined by “and” are separate entries in the source; they are usually repeats but may differ in a detail not shown here. Identical values can stand only once.

Legend:
UCHL1 = target: T1, UCHL1 (Homo sapiens, UniProt P09936); assay: In-cell proteome-wide competitive ABPP (quantitative chemical proteomics), HEK293: UCHL1; conditions: for Log2 reporter intensity values: UCHL1: DMSO substract (FC); for Log2 reporter intensity values: UCHL1 / Log2 reporter intensity values: replicates A-C; for UCHL1 response in proteome-wide competitive ABPP: HEK293, compound 60 min, then 2 (20 nM) 10 min; for Log2 reporter intensity values: UCHL1, DMSO subtracted
T1 sequence (P09936 1-223): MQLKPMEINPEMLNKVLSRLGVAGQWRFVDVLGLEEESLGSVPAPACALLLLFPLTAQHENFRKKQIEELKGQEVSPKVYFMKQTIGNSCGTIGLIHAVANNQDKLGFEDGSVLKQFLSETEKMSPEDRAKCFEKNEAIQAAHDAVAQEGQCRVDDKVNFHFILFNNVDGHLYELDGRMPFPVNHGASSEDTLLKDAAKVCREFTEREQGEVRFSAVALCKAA

USP21 = target: T2, USP21 (Homo sapiens, UniProt Q9UK80); assay: biochemical
T2 sequence (Q9UK80 1-565): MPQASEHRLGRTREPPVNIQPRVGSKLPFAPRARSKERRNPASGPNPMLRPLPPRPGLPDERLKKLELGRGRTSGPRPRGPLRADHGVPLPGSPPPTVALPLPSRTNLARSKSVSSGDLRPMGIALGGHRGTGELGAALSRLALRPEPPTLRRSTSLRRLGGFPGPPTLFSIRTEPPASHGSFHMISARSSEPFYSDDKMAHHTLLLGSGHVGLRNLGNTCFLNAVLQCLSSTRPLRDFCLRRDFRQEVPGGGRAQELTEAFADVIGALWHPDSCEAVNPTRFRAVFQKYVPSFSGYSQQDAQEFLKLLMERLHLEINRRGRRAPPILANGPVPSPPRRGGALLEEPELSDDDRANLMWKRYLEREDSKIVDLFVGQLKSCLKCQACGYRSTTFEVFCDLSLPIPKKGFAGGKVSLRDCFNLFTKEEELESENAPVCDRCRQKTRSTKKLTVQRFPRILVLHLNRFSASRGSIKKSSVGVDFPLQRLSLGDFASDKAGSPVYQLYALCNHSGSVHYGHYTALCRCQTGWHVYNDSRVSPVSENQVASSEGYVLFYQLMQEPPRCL

OTUB2 = target: T3, OTUB2 (Homo sapiens, UniProt Q96DC9); assay: biochemical
T3 sequence (Q96DC9 1-234): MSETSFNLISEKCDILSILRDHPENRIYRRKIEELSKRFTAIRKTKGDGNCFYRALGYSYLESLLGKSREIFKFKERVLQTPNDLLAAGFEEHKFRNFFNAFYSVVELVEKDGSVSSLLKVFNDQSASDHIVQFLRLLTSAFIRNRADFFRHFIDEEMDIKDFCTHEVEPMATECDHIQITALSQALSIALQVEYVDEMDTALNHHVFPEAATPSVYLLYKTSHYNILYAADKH

USP1 = USP1 (Homo sapiens, UniProt O94782); assay: biochemical
USP1, sequence (O94782 whole entry, species assumed): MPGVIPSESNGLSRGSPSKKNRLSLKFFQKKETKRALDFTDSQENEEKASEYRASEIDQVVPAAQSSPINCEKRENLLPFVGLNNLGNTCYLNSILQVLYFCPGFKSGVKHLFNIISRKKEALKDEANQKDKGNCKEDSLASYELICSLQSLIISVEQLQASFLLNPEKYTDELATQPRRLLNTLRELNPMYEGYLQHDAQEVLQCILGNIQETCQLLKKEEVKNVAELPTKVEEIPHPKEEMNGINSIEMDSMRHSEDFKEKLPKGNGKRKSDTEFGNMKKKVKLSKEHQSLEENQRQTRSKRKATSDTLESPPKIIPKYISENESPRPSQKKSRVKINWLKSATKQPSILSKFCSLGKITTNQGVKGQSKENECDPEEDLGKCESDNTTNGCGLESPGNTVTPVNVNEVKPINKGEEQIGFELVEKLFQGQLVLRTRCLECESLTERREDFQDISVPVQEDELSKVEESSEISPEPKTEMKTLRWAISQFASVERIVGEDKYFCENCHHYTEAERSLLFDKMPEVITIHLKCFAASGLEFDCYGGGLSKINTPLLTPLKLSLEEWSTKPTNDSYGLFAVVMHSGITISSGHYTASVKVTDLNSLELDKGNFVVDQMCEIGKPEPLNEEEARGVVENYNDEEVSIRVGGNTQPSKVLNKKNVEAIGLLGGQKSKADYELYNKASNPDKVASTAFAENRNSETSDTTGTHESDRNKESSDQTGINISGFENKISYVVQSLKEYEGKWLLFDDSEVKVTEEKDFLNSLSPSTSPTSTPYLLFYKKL
USP1, sequence (Q8TAF3 whole entry partner, species assumed): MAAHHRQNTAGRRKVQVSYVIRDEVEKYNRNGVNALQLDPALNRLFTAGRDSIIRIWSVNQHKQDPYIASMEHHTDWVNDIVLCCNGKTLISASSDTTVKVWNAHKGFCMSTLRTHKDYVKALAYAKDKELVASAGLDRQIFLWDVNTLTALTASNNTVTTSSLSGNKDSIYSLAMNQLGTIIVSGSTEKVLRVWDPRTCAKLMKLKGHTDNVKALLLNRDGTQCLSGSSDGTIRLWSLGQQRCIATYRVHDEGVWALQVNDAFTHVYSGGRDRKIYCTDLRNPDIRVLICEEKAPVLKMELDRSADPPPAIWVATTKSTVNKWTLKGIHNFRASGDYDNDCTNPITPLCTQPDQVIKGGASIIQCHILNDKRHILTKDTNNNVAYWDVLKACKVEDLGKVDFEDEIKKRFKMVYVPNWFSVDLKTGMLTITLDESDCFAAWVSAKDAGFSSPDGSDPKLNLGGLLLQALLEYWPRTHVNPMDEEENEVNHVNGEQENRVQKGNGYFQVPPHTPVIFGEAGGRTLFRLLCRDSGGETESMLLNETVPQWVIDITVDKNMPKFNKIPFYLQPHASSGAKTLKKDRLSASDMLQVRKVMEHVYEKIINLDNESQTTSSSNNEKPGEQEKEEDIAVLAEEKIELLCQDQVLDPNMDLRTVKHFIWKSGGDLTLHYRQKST

USP34 = USP34 (Homo sapiens, UniProt Q70CQ2); assay: Biochemical DUB selectivity profiling assay: USP34; conditions: Ub-Rho110 400 nM, buffer B; read-out: Biochemical IC50 range, USP34
Protocol: (§1) DUB Assay Substrate Substrate
(§2) Buffer Concentration (nM) […]
(§3) Sepharose® 4B resin (GE Healthcare).
(§4) 10 kDa molecular weight cut-off (MWCO)).
(§5) Fractions containing protein
(§6) Protein concentration was […]
(§7) reaction volume of 21 μL. […]
(§8) compound (final concentration 5 nM).
(§9) IC50 values were determined
(§10) Biochemical DUB selectivity profiling assays […]
(§11) in 40 µL total reaction volume.

USP28 = target: T4, USP28 (Homo sapiens, UniProt Q96RU2); assay: Biochemical DUB selectivity profiling assay: USP28; conditions: Ub-Lys-TAMRA 50 nM, buffer B; read-out: Biochemical IC50 range, USP28
T4 sequence (Q96RU2 1-1077): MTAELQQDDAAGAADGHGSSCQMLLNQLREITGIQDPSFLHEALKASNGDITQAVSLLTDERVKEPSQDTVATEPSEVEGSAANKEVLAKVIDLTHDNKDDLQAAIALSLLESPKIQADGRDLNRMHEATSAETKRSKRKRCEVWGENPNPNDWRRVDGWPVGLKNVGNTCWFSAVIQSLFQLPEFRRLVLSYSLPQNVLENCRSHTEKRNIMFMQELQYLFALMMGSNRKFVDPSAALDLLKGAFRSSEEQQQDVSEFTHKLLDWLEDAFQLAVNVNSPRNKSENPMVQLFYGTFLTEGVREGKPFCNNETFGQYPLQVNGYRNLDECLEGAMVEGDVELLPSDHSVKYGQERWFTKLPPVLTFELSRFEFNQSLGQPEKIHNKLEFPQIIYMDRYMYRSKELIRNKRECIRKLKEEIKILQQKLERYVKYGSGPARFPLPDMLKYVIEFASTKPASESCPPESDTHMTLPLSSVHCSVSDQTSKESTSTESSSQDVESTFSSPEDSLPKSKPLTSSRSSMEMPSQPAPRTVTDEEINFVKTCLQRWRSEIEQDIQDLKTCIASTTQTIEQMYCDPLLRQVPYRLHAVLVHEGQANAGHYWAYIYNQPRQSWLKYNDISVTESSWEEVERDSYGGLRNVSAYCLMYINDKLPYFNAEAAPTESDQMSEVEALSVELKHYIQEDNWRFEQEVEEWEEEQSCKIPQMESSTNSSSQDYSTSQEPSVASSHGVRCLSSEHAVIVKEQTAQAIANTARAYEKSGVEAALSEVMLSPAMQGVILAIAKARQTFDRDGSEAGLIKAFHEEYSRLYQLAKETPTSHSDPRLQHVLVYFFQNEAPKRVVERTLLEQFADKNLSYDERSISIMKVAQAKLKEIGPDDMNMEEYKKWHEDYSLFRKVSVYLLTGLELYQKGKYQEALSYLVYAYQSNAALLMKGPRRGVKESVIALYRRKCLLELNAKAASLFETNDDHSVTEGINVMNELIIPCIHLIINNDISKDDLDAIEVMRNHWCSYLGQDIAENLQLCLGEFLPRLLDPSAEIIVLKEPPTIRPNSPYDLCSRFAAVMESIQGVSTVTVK
Protocol: as §1, §2, §3, §4, §5, §6, §7, §8, §9, §10, §11

USP10 = USP10 (Homo sapiens, UniProt Q14694); assay: biochemical
USP10, sequence (Q14694 whole entry): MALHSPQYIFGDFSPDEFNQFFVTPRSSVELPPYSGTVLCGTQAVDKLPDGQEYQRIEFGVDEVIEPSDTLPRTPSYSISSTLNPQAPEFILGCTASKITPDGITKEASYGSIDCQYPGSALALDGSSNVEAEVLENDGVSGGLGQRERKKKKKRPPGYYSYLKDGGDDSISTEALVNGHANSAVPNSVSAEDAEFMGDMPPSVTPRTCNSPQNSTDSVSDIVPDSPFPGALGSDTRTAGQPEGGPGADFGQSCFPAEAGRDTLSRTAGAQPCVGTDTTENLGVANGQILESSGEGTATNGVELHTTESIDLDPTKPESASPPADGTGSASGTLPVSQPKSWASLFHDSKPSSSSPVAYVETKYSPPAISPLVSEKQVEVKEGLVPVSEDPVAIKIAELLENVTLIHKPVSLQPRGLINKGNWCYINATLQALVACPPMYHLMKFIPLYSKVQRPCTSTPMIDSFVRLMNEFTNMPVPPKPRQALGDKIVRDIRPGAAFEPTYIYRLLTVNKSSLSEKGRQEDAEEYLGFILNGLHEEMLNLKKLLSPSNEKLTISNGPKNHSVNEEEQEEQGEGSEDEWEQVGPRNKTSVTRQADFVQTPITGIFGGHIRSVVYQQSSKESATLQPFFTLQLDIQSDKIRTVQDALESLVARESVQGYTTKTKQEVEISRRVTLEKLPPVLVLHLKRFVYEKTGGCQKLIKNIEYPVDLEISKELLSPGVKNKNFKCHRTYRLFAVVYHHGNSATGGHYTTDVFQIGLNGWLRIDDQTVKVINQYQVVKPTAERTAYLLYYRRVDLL

Row | Compound | UCHL1 response in proteome-wide competitive ABPP (UCHL1) | pIC50 (USP21) | pIC50 (OTUB2) | pIC50 (USP1) | pIC50 (USP34) | pIC50 (USP28) | pIC50 (USP10) | also measured
1 | N#CN1CCC[C@H]1C(=O)N1CCc2c(-c3c[nH]c4ncccc34)cccc21 [Compound 1] | responds strongly | < 5.00 | < 5.00 | < 5.00 | 5.00 to 6.00 | < 5.00 | < 5.00 | Log2 reporter intensity values: UCHL1 (UCHL1; 1 at 1 μM, competition with ABP 2): 1.266 and 1.307 and 1.157; Log2 reporter intensity values: UCHL1 (UCHL1; 1 at 4 μM, competition with ABP 2): 0.9345 and 0.8874 and 0.9379; Log2 reporter intensity values (UCHL1; 1_1 μM): 0.2661 and 0.3067 and 0.157; Log2 reporter intensity values (UCHL1; 1_4 μM): -0.06576 and -0.1128 and -0.06231; Log2 reporter intensity values (UCHL1; 1 at 1 μM): 0.3407 and 0.3862 and 0.2107; Log2 reporter intensity values (UCHL1; 1 at 4 μM): -0.09779 and -0.1723 and -0.09247
2 | C#Cc1cnc2[nH]cc(-c3cccc4c3CCN4C(=O)[C@@H]3CCCN3C#N)c2c1 [Compound 2] |  |  |  |  | 5.00 to 6.00 | < 5.00 |  | Log2 reporter intensity values: UCHL1 (UCHL1; 20 nM ABP 2 alone): 6.229 and 5.741 and 6.184; Log2 reporter intensity values (UCHL1; 20 nM ABP 2): 2.639 and 2.521 and 2.629 and 5.2291 and 4.741 and 5.184
3 | N#CN1CCC[C@@H]1C(=O)N1CCc2c(-c3c[nH]c4ncccc34)cccc21 [Compound 3] | does not respond | < 5.00 | < 5.00 | < 5.00 | < 5.00 |  | < 5.00 | Log2 reporter intensity values: UCHL1 (UCHL1; 3 at 1 μM, competition with ABP 2): 5.152 and 5.416 and 5.469; Log2 reporter intensity values: UCHL1 (UCHL1; 3 at 4 μM, competition with ABP 2): 5.424 and 5.76 and 5.633; Log2 reporter intensity values (UCHL1; 3_1 μM): 4.152 and 4.416 and 4.468; Log2 reporter intensity values (UCHL1; 3_4 μM): 4.423 and 4.76 and 4.632; Log2 reporter intensity values (UCHL1; 3 at 1 μM): 2.365 and 2.437 and 2.451; Log2 reporter intensity values (UCHL1; 3 at 4 μM): 2.439 and 2.526 and 2.494
4 | CC(=O)O/N=C1\C(=O)N(Cc2cc(Cl)ccc2Cl)c2ccc(Cl)cc21 [LDN-57444, reference compound] |  | < 5.00 | < 5.00 | < 5.00 | < 5.00 | < 5.00 | < 5.00 | 
